Assay results taken from patent publication US11717509B2, “Blend containing carbamate compound for prevention, mitigation, or treatment of schizophrenia” (SK BIOPHARMACEUTICALS CO., LTD., priority 2017, dated 2023).

Test system: animal model in which schizophrenia-like symptoms were induced by treatment with dizocilpine (MK-801)
Assay: Social interaction animal behavior test in rats with schizophrenia-like symptoms induced by dizocilpine (MK-801)
Type: in vivo, rat (Wistar, male)
Conditions: for Social interaction (Mean ± SEM) = total time of active social interactions of sniffing, grooming, licking, mounting and crawling: male Wistar rats in pairs, 5 min observation, dizocilpine 0.1 mg/kg sc 4 h before, aripiprazole 0.003 mg/kg po and/or test compound 3 mg/kg po 1 h before, 20 pairs; for total time average of active social interactions: mean±SEM, aripiprazole 0.003 mg/kg and/or test compound 3 mg/kg po; for total time average of active social interactions / Recovery rate compared to negative control: dizocilpine 0.1 mg/kg sc; for Statistical significance compared to negative control (P < 0.05?) / Statistical significance compared to positive control (P < 0.05?): one-way ANOVA, Dunnett's test; for Statistical significance compared to negative control (P < 0.05?): negative control = dizocilpine only; for Statistical significance compared to negative control (P < 0.05?) / Statistical significance compared to positive control (P < 0.05?) / Recovery rate compared to negative control: aripiprazole 0.003 mg/kg po and/or test compound 3 mg/kg po; for Statistical significance compared to positive control (P < 0.05?): positive control = vehicle group; for Recovery rate compared to negative control: versus dizocilpine-only negative control and vehicle positive control
Text: The antipsychotic activity of the carbamate compounds of Formula 1 and aripiprazole against schizophrenia can be tested through social interaction animal behavior tests used in drug development for the negative symptoms of schizophrenia (Neill J C, Grayson B, Kiss B, Gyertyán I, Ferguson P, Adham N, Effects of cariprazine, a novel antipsychotic, on cognitive deficit and negative symptoms in a rodent model of schizophrenia symptomatology, Eur Neuropsychopharmacol. 2016 January; 26(1):3-14). […] Dizocilpine (MK-801) is an N-methyl-D-aspartate (NMDA) receptor inhibitor. In the dizocilpine-induced (MK-801-induced) social interaction animal behavior test, schizophrenia-like symptoms can be induced by administration of dizocilpine (Rung J P, Carlsson A, Ryden Markinhuhta K, Carlsson M L, (+)-MK-801 induced social withdrawal in rats; a model for negative symptoms of schizophrenia. Prog Neuropsychopharmacol Biol Psychiatry. 2005 June; 29(5):827-32). Aripiprazole, known as an atypical antipsychotic drug, inhibits schizophrenia-like symptoms in proportion to the dose of dizocilpine (Deiana S, Watanabe A, Yamasaki Y, Amada N, Kikuchi T, Stott C, Riedel G, MK-801-induced deficits in social recognition in rats: reversal by aripiprazole, but not olanzapine, risperidone, or cannabidiol. Behav Pharmacol. 2015 December; 26 (8 Spec No): 748-65).
Male rats (Wistar, 4 weeks old, Orient Bio Co., Ltd.) were purchased, divided into 2 groups in an animal breeding room and acclimatized for more than 1 week on separate shelves. The experimental animals were housed and maintained in accordance with the Laboratory Animal Care Standards of the Institutional Animal Care and Use Committee (IACUC) under conditions of light-and-darkness cycle of 12 hours, a temperature of 22 to 25° C., a relative humidity of 40-60% and free access to food and water.
Thus, an animal model is used in which schizophrenia-like symptoms can be induced by treatment of dizocilpine, an N-methyl-D-aspartate (NMDA) receptor inhibitor.
Dizocilpine (purchased from Sigma) was newly prepared by dissolving it in physiological saline used as a vehicle, and 4 hours before the experiment, a 0.1 mg/kg dose was administered subcutaneously in a volume of 1 ml per 1 kg of body weight of the rat.
Aripiprazole and the test compound were newly prepared by dissolving them in 30% polyethylene glycol 400 (Sigma) used as a vehicle. One hour before the experiment, a 0.003 mg/kg dose of aripiprazole and a 3 mg/kg dose of the test compound were administered orally in a volume of 1 ml per 1 kg of body weight of the rat.
The male rats were placed in the same observation box in pairs, allowing 1:1 interaction, and then the total time of sniffing, grooming, licking, mounting and crawling under or over the other rat which can be considered as active social interactions was measured for 5 minutes, and social interaction was evaluated based on that.
All data are expressed as mean±SEM. Statistical analysis of the total time of active social interactions between groups was performed using the GraphPad Prism ver. 5.04 program, and analyzed by one-way ANOVA (one-way analysis of variance) and Dunnett's multiple comparison test.
The recovery rate was calculated as follows.

Row | SMILES | Social interaction (Mean ± SEM) = total time of active social interactions of sniffing, grooming, licking, mounting and crawling | total time average of active social interactions | Statistical significance compared to negative control (P < 0.05?) | Statistical significance compared to negative control (P < 0.05?) (listed as aripiprazole) | Statistical significance compared to positive control (P < 0.05?) | Statistical significance compared to positive control (P < 0.05?) (listed as aripiprazole) | Recovery rate compared to negative control | Recovery rate compared to negative control (listed as aripiprazole) | Statistical significance compared to negative control (P < 0.05?) (listed as test compound) | Statistical significance compared to positive control (P < 0.05?) (listed as test compound) | Recovery rate compared to negative control (listed as test compound)
1 | O=C1CCc2ccc(OCCCCN3CCN(c4cccc(Cl)c4Cl)CC3)cc2N1 [Aripiprazole, 7-{4-[4-(2,3-dichlorophenyl)piperazin-1-yl]butoxy}-3,4-dihydroquinolin-2(1H)-one] | 57.52 ± 3.04 s | 57.52 ± 3.04 s | Not significant | no statistically significant difference | Significant | statistically significant difference | 23.2% | 23.2% |  |  | 
2 | C[C@]12N[C@H](Cc3ccccc31)c1ccccc12 [Dizocilpine] | 53.86 ± 2.90 s | 53.86 ± 2.90 s |  |  | Significant |  | 0.0% |  |  |  | 
3 | NC(=O)O[C@@H](Cn1ncnn1)c1ccccc1Cl [Test compound, Carbamic acid (R)-1-(2-chlorophenyl)-2-tetrazol-2-yl-ethyl ester] | 56.78 ± 2.19 s | 56.78 ± 2.19 s | Not significant |  | Significant |  | 18.5% |  | no statistically significant difference | statistically significant difference | 18.5%
